Test in all cases: relative viability (nuclei count vs DMSO), 5 days (fraction); higher = more cells survive
Compound in the test “Mirin + Foretinib”: N=C1NC(=O)/C(=C/c2ccc(O)cc2)S1 [Mirin] + COc1cc2c(Oc3ccc(NC(=O)C4(C(=O)Nc5ccc(F)cc5)CC4)cc3F)ccnc2cc1OCCCN1CCOCC1 [Foretinib] (partner 0.25 µM)
The gist of the method: (§1)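 Dosing by pin tool came one day after lung cancer cell lines were seeded in 1536-well plates, using either one drug or a fixed anchor-drug dose plus five library-drug doses (not always all listed) in √10 steps. After 5 days, nuclei were counted on 4× images. Relative viability is treated-well nuclei count divided by vehicle-well nuclei count, and values are medians of duplicate plates.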

Compound in test [1]: CCC1=CN=CN=C1N2CCN(CC2)CC3=NC4=C(N3)C=C(C=C4)C(F)(F)F + COc1cccc2cc(-c3nc([C@H]4CC[C@H](C(=O)O)CC4)n4ncnc(N)c34)[nH]c12 [OSI-027] (partner 0.5 µM)
The gist of the method:
as §1

Compound in test [2]: CCC1=CN=CN=C1N2CCN(CC2)CC3=NC4=C(N3)C=C(C=C4)C(F)(F)F + Nc1ncn([C@H]2C[C@H](O)[C@@H](CO)O2)c(=O)n1 [Decitabine] (partner 2 µM)
An outline of the steps:
as §1

Compound in test [3]: CCn1c(-c2nonc2N)nc2cnc(Oc3cccc(NC(=O)c4ccc(OCCN5CCOCC5)cc4)c3)cc21 + Nc1ncn([C@H]2C[C@H](O)[C@@H](CO)O2)c(=O)n1 [Decitabine] (partner 2 µM)
An outline of the steps: as §1

Take PC-14: the relative viability turned out to be 0.968 with Mirin + Foretinib (first compound 0.25 µM); 0.833 in the test with Mirin + Foretinib (first compound 0.7906 µM); 1.09 with Mirin + Foretinib (first compound 2.5 µM); 0.929 with Mirin + Foretinib (first compound 7.906 µM); 1.02 with Mirin + Foretinib (first compound 25 µM); 0.871 in test [1] (first compound 0.04 µM). Moreover, the relative viability in test [1] (first compound 0.1265 µM) was 0.814; in test [1] (first compound 0.4 µM), 0.809; in test [1] (first compound 1.265 µM) it was 0.766; in test [1] (first compound 4 µM) it was 0.82; in test [2] (first compound 0.04 µM) it was 0.209; in test [2] (first compound 0.1265 µM), 0.159. In addition, the relative viability in test [2] (first compound 0.4 µM) amounted to 0.22; in test [2] (first compound 1.265 µM), 0.205; in test [2] (first compound 4 µM), 0.228; in test [3] (first compound 0.04 µM) it was 0.238; in test [3] (first compound 0.1265 µM), 0.252; in test [3] (first compound 0.4 µM) it was 0.217. Further, the relative viability in test [3] (first compound 1.265 µM) was 0.213; in test [3] (first compound 4 µM), 0.286.
Take RERF-LC-KJ: the relative viability in the test with Mirin + Foretinib (first compound 0.25 µM) was 0.974; in the test with Mirin + Foretinib (first compound 0.7906 µM) it was 0.915; with Mirin + Foretinib (first compound 2.5 µM) it was 0.932; with Mirin + Foretinib (first compound 7.906 µM), 0.892; in the test with Mirin + Foretinib (first compound 25 µM), 0.901; in test [1] (first compound 0.04 µM), 0.517. Moreover, the relative viability in test [1] (first compound 0.1265 µM) stood at 0.584; in test [1] (first compound 0.4 µM), 0.602; in test [1] (first compound 1.265 µM) it was 0.517; in test [1] (first compound 4 µM), 0.601; in test [2] (first compound 0.04 µM), 0.638; in test [2] (first compound 0.1265 µM) it was 0.627. In addition, the relative viability came to 0.745 in test [2] (first compound 0.4 µM); 0.577 in test [2] (first compound 1.265 µM); 0.611 in test [2] (first compound 4 µM); 0.621 in test [3] (first compound 0.04 µM); 0.695 in test [3] (first compound 0.1265 µM); 0.588 in test [3] (first compound 0.4 µM). Also, the relative viability amounted to 0.452 in test [3] (first compound 1.265 µM) and 0.29 in test [3] (first compound 4 µM).
With SK-LU-1, the relative viability with Mirin + Foretinib (first compound 0.25 µM) is 0.801; with Mirin + Foretinib (first compound 0.7906 µM) it was 0.924; with Mirin + Foretinib (first compound 2.5 µM), 0.863; with Mirin + Foretinib (first compound 7.906 µM) it was 0.728; with Mirin + Foretinib (first compound 25 µM), 0.731; in test [1] (first compound 0.04 µM) it was 0.386. The relative viability is 0.315 in test [1] (first compound 0.1265 µM); 0.337 in test [1] (first compound 0.4 µM); 0.3 in test [1] (first compound 1.265 µM); 0.357 in test [1] (first compound 4 µM); 0.512 in test [2] (first compound 0.04 µM); 0.6 in test [2] (first compound 0.1265 µM). Besides, the relative viability in test [2] (first compound 0.4 µM) worked out at 0.623; in test [2] (first compound 1.265 µM) it was 0.605; in test [2] (first compound 4 µM) it was 0.614; in test [3] (first compound 0.04 µM), 0.628; in test [3] (first compound 0.1265 µM), 0.571; in test [3] (first compound 0.4 µM) it was 0.423. Besides, the values for the relative viability in test [3] (first compound 1.265 µM) and in test [3] (first compound 4 µM) were 0.459 and 0.424, respectively.
For the cell line SK-MES-1, the relative viability was 0.859 with Mirin + Foretinib (first compound 0.25 µM); 1.07 with Mirin + Foretinib (first compound 0.7906 µM); 0.914 with Mirin + Foretinib (first compound 2.5 µM); 0.945 with Mirin + Foretinib (first compound 7.906 µM); 1.31 with Mirin + Foretinib (first compound 25 µM); 0.648 in test [1] (first compound 0.04 µM). Also, the relative viability in test [1] (first compound 0.1265 µM) stood at 0.592; in test [1] (first compound 0.4 µM) it was 0.597; in test [1] (first compound 1.265 µM) it was 0.57; in test [1] (first compound 4 µM), 0.622; in test [2] (first compound 0.04 µM), 0.34; in test [2] (first compound 0.1265 µM), 0.386. Further, the relative viability in test [2] (first compound 0.4 µM) amounted to 0.373; in test [2] (first compound 1.265 µM) it was 0.372; in test [2] (first compound 4 µM), 0.361; in test [3] (first compound 0.04 µM) it was 0.348; in test [3] (first compound 0.1265 µM) it was 0.375; in test [3] (first compound 0.4 µM) it was 0.372. Further, the figures for the relative viability in test [3] (first compound 1.265 µM) and in test [3] (first compound 4 µM) were 0.358 and 0.333, respectively.
On to SW 900, for which the relative viability was 1.02 with Mirin + Foretinib (first compound 0.25 µM); 1.19 with Mirin + Foretinib (first compound 0.7906 µM); 1.1 with Mirin + Foretinib (first compound 2.5 µM); 0.866 with Mirin + Foretinib (first compound 7.906 µM); 0.827 with Mirin + Foretinib (first compound 25 µM); 0.529 in test [1] (first compound 0.04 µM). In addition, the relative viability in test [1] (first compound 0.1265 µM) is 0.543; in test [1] (first compound 0.4 µM), 0.539; in test [1] (first compound 1.265 µM) it was 0.421; in test [1] (first compound 4 µM) it was 0.476; in test [2] (first compound 0.04 µM) it was 0.385; in test [2] (first compound 0.1265 µM) it was 0.424. For the same cell line, the relative viability was determined as 0.457 in test [2] (first compound 0.4 µM); 0.397 in test [2] (first compound 4 µM); 0.412 in test [3] (first compound 0.04 µM); 0.453 in test [3] (first compound 0.1265 µM); 0.42 in test [3] (first compound 0.4 µM); 0.442 in test [3] (first compound 1.265 µM). For the same cell line, the relative viability in test [3] (first compound 4 µM) is 0.456.
As for SW 1573, the relative viability with Mirin + Foretinib (first compound 0.25 µM) is 0.82; with Mirin + Foretinib (first compound 0.7906 µM), 0.822; with Mirin + Foretinib (first compound 2.5 µM), 0.892; with Mirin + Foretinib (first compound 7.906 µM), 0.76; with Mirin + Foretinib (first compound 25 µM) it was 0.981; in test [1] (first compound 0.04 µM), 0.529. Besides, the relative viability in test [1] (first compound 0.1265 µM) was found to be 0.582; in test [1] (first compound 0.4 µM), 0.53; in test [1] (first compound 1.265 µM), 0.49; in test [1] (first compound 4 µM) it was 0.499; in test [2] (first compound 0.04 µM) it was 0.471; in test [2] (first compound 0.1265 µM), 0.425. Besides, the relative viability in test [2] (first compound 0.4 µM) came out at 0.57; in test [2] (first compound 1.265 µM), 0.378; in test [2] (first compound 4 µM), 0.478; in test [3] (first compound 0.04 µM) it was 0.476; in test [3] (first compound 0.1265 µM) it was 0.466; in test [3] (first compound 0.4 µM), 0.365. Moreover, the results for the relative viability in test [3] (first compound 1.265 µM) and in test [3] (first compound 4 µM) were 0.23 and 0.173, respectively.

Values taken from the supplement of paper PMC10307832.
